Source: PubChem BioAssay (NCI)
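Protocol summary: plate cells (96-well), add compound at 5 concentrations, incubate 48 h, interpolate endpoints linearly. Here, GI50 denotes the concentration required for 50% inhibition of growth. TGI marks complete inhibition of growth.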

Experiments:
Assay in all cases: DTP human tumour cell line panel, 48 h
BT-549 breast = test system: BT-549 breast
EKVX NSCLC = test system: EKVX NSCLC
HCC-2998 colon = test system: HCC-2998 colon
HCT-116 colon = test system: HCT-116 colon
HL-60(TB) leukemia = test system: HL-60(TB) leukemia
HS 578T breast = test system: HS 578T breast
HT29 colon = test system: HT29 colon
M14 melanoma = test system: M14 melanoma
NCI-H460 lung = test system: NCI-H460 lung
SK-MEL-28 melanoma = test system: SK-MEL-28 melanoma

| SMILES | TGI (BT-549 breast) | TGI (EKVX NSCLC) | TGI (HCC-2998 colon) | TGI (HCT-116 colon) | TGI (HL-60(TB) leukemia) | TGI (HS 578T breast) | TGI (HT29 colon) | TGI (M14 melanoma) | TGI (NCI-H460 lung) | TGI (SK-MEL-28 melanoma) | GI50 (BT-549 breast) | GI50 (EKVX NSCLC) | GI50 (HCC-2998 colon) | GI50 (HCT-116 colon) | GI50 (HL-60(TB) leukemia) | GI50 (HS 578T breast) | GI50 (HT29 colon) | GI50 (M14 melanoma) | GI50 (NCI-H460 lung) | GI50 (SK-MEL-28 melanoma) |
| --- | --- | --- | --- | --- | --- | --- | --- | --- | --- | --- | --- | --- | --- | --- | --- | --- | --- | --- | --- | --- |
| O=C(N[C@H]1c2ccsc2/C(=N/O)[C@H]1O)C(F)(F)F | > 100 µM | > 100 µM | > 100 µM | > 100 µM | > 100 µM | > 100 µM | > 100 µM | > 100 µM | > 100 µM | > 100 µM | – | – | – | – | – | – | – | – | – | – |
| CC(=O)c1cc2c(s1)C(=O)c1ccccc1C2=O | 7.75 µM | 15.9 µM | 18.3 µM | > 31.2 µM | > 100 µM | > 67.6 µM | 21.4 µM | 10.8 µM | > 33.4 µM | 36.2 µM | – | – | – | – | – | – | – | – | – | – |
| S=C(S)NCC1CCC(CNC(=S)S)CC1 (centres undefined) | > 100 µM | > 100 µM | 48.3 µM | 42.5 µM | > 100 µM | > 100 µM | 42.3 µM | > 100 µM | > 100 µM | > 100 µM | – | – | – | – | – | – | – | – | – | – |
| COc1cc2c(/C=C3/C(=O)N(c4ccccc4)c4ccccc43)c(Cl)[nH]c2cc1C | 7.56 µM | > 31.4 µM | 8.37 µM | 16.6 µM | > 23.1 µM | > 100 µM | > 31 µM | 12.9 µM | 9.04 µM | > 100 µM | – | – | – | – | – | – | – | – | – | – |
| COc1ccc(/C=C2\N=C(c3ccccc3)N(C3Nc4cc5c(cc4S3)NC(N3C(=O)/C(=C/c4ccc(OC)cc4)N=C3c3ccccc3)S5)C2=O)cc1 (centres undefined) | 61.9 µM | 99.5 µM | 97.7 µM | > 100 µM | > 100 µM | > 100 µM | > 100 µM | > 100 µM | > 100 µM | > 100 µM | – | – | – | – | – | – | – | – | – | – |
| CC(C)CNC(=O)Cn1c(-c2ccccc2)cc2ccccc21 | > 100 µM | > 100 µM | > 100 µM | > 100 µM | > 100 µM | > 100 µM | > 100 µM | > 100 µM | > 100 µM | > 100 µM | – | – | – | – | – | – | – | – | – | – |
| CC1(COS(=O)(=O)OCC2(C)COS(=O)(=O)OC2)COS(=O)(=O)OC1 | > 96.2 µM | > 100 µM | > 100 µM | > 100 µM | > 58 µM | > 100 µM | > 69.6 µM | > 100 µM | > 100 µM | > 100 µM | – | – | – | – | – | – | – | – | – | – |
| Cc1c2c(OCCCCN3CCN(c4ncccn4)CC3)nn(C)c(=O)c2c(C)n1-c1ccccc1 | 34.5 µM | 36.6 µM | 35 µM | 31.7 µM | 47.2 µM | 67.8 µM | > 100 µM | 35.9 µM | 35.6 µM | 34.5 µM | – | – | – | – | – | – | – | – | – | – |
| O=c1oc2ccc(Cl)cc2cc1-c1cn2cc(Cl)ccc2n1 | > 100 µM | > 100 µM | > 100 µM | > 100 µM | > 100 µM | > 68.5 µM | > 58.8 µM | > 100 µM | > 100 µM | > 100 µM | – | – | – | – | – | – | – | – | – | – |
| C=CC[C@@]1(C(=O)OC)[C@H](Sc2ccccc2)C1(C)C | > 100 µM | > 100 µM | 96.2 µM | > 100 µM | 45.8 µM | > 100 µM | > 100 µM | > 100 µM | > 100 µM | > 100 µM | – | – | – | – | – | – | – | – | – | – |
| C[C@]12CC[C@@H]3c4ccc(OC(=O)c5ccccc5)cc4CC[C@H]3[C@@H]1CC[C@@H]2Oc1c2ccccc2nc2ccccc12 | 25.1 µM | 8.96 µM | 16.9 µM | 18 µM | 40.4 µM | > 50 µM | 12.6 µM | 15.9 µM | 17.1 µM | 22.3 µM | – | – | – | – | – | – | – | – | – | – |
| C[C@]12CC[C@H](O)CC1=CC[C@@H]1[C@@H]2CC[C@]2(C)/C(=N/OCCN3CCCC3)CC[C@@H]12 | 37.6 µM | 49.2 µM | 37.1 µM | 28.6 µM | 23 µM | 83.8 µM | 10.3 µM | – | 24.8 µM | 30.6 µM | – | – | – | – | – | – | – | – | – | – |
| COc1ccc(C(=O)N2c3ccccc3Sc3ccccc32)c(C(F)(F)F)c1 | 13.6 µM | > 100 µM | 32 µM | > 100 µM | 0.793 µM | > 100 µM | > 100 µM | > 100 µM | > 100 µM | > 100 µM | 0.892 µM | 0.613 µM | 0.467 µM | 0.505 µM | 0.252 µM | 0.472 µM | 0.362 µM | 0.343 µM | 0.383 µM | 9.17 µM |
| COc1ccc2nc3cc(Cl)ccc3c(NCCNCCCNC(=O)c3cc(-c4ccccc4)nc4ccccc34)c2c1 | > 100 µM | > 100 µM | > 100 µM | > 100 µM | > 100 µM | > 100 µM | > 100 µM | > 100 µM | > 100 µM | > 100 µM | – | – | – | – | – | – | – | – | – | – |
| c1ccc2c(c1)nc1n2CCSC1 | > 100 µM | > 100 µM | > 100 µM | > 100 µM | > 100 µM | > 100 µM | > 100 µM | > 100 µM | > 100 µM | > 100 µM | – | – | – | – | – | – | – | – | – | – |
| CCOC(=O)C(CS)NC(=O)CCCCCCCC(=O)NC(CS)C(=O)OCC (centres undefined) | > 100 µM | > 100 µM | > 100 µM | > 100 µM | > 100 µM | > 100 µM | > 100 µM | > 100 µM | > 100 µM | > 100 µM | – | – | – | – | – | – | – | – | – | – |
| CC(C)N(C)C(=O)C12C3C4C1C1C2C3C41C#N (centres undefined) | > 100 µM | > 100 µM | > 100 µM | > 100 µM | > 100 µM | > 100 µM | > 100 µM | > 100 µM | > 100 µM | > 100 µM | – | – | – | – | – | – | – | – | – | – |
